One test addresses T1, human V1a receptor (Homo sapiens, UniProt P37288).
T1 construct: expressed in transfected cells; host or cells: CHO K1 (ATCC), also stably transfected with a modified aequorin
Kind of test: Cellular in vitro assay for determining vasopressin receptor activity, V1a receptor cell line (CHO, aequorin luminescence). The format is cell-based. Particulars: for IC50: CHO cell line transfected with human V1a receptor, [Arg]-vasopressin at EC50 concentration, read-out: IC50 hV1a; for ratio IC50 hV2/hV1a: selectivity ratio IC50 hV2 / IC50 hV1a. In a few lines:
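CHO K1/aequorin cells, coelenterazine 5 μg/ml o/n; cpd 10 min; [Arg]-vasopressin at EC50; luminescence read immediately; IC50.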

Another test deals with T2, human V2 receptor (Homo sapiens, UniProt P30518).
T2 construct: expressed in transfected cells; host or cells: CHO K1 (ATCC) expressing firefly luciferase under a CRE-responsive promoter
The experiment in a line: Cellular in vitro assay for determining vasopressin receptor activity, V2 receptor cell line (CHO, CRE-luciferase). Type of test: cell-based. The note with it: CHO cell line transfected with human V2 receptor; [Arg8]-vasopressin at EC50 concentration; read-out: IC50 hV2.

Molecules are shown by their SMILES.

Broadly, the IC50 is the concentration that inhibits the measured activity by half.

T2 sequence (P30518 whole entry): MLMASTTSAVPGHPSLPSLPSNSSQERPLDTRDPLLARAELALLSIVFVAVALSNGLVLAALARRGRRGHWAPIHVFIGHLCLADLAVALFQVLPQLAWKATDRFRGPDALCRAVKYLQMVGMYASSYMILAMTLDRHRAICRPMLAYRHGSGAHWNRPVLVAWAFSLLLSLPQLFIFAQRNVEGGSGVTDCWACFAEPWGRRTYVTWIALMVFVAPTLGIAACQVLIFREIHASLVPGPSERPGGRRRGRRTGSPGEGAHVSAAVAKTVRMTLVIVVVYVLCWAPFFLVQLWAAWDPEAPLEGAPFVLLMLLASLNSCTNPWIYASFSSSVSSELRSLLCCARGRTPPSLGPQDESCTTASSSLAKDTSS
T1 sequence (P37288 whole entry): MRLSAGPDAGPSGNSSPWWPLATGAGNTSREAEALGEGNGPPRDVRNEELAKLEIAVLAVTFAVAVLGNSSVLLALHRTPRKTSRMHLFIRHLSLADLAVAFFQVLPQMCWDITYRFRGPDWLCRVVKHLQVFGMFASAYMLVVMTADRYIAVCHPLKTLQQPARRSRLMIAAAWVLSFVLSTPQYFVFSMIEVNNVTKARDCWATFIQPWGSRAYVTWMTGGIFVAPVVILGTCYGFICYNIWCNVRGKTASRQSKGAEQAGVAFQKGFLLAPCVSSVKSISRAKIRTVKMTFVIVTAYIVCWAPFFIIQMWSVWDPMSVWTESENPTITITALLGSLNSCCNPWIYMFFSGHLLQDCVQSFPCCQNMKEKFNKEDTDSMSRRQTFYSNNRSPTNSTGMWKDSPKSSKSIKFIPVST

`O=C(NC1CC1(F)F)c1cccc(C(F)(F)F)c1-n1cnc(Cn2nc(-c3ccc(Cl)cc3)n(C[C@H](O)C(F)(F)F)c2=O)n1` (mixture of isomers) [Example 420, 2-[3-({3-(4-Chlorophenyl)-5-oxo-4-[(2S)-3,3,3-trifluoro-2-hydroxypropyl]-4,5-dihydro-1H-1,2,4-triazol-1-yl}methyl)-1H-1,2,4-triazol-1-yl]-N-[2,2-difluorocyclopropyl]-3-(trifluoromethyl)benzamide]: at human V1a receptor, the half-maximal inhibitory concentration (IC50) was 58.5 nM and the “ratio IC50 hV2/hV1a” value is on record as 19.7. The IC50 at human V2 receptor worked out at 1150 nM.

For `NC(CNC(=O)c1ncccc1-n1cnc(Cn2nc(-c3ccc(Cl)cc3)n(C[C@H](O)C(F)(F)F)c2=O)n1)C(F)(F)F` (mixture of isomers) [Example 429, N-[(2R)-2-Amino-3,3,3-trifluoropropyl]-3-[3-({3-(4-chlorophenyl)-5-oxo-4-[(2S)-3,3,3-trifluoro-2-hydroxypropyl]-4,5-dihydro-1H-1,2,4-triazol-1-yl}methyl)-1H-1,2,4-triazol-1-yl]pyridine-2-carboxamide], at human V1a receptor, the IC50 came to 51 nM and the “ratio IC50 hV2/hV1a” value was determined as 27.5. Moreover, on human V2 receptor, the 50% inhibitory concentration (IC50) turned out to be 1400 nM.

As for `O=C(NCC(O)C(F)(F)F)c1ncccc1-n1cnc(Cn2nc(-c3ccc(Cl)cc3)n(C[C@H](O)C(F)(F)F)c2=O)n1` (mixture of isomers) [Example 430, 3-[3-({3-(4-Chlorophenyl)-5-oxo-4-[(2S)-3,3,3-trifluoro-2-hydroxypropyl]-4,5-dihydro-1H-1,2,4-triazol-1-yl}methyl)-1H-1,2,4-triazol-1-yl]-N-[3,3,3-trifluoro-2-hydroxypropyl]pyridine-2-carboxamide], at human V1a receptor, the IC50 worked out at 44.5 nM and the “ratio IC50 hV2/hV1a” value amounted to 16.0. The IC50 on human V2 receptor came to 710 nM.

As for `O=C(NC1CC1(F)F)c1ncccc1-n1cnc(Cn2nc(-c3ccc(Cl)cc3)n(C[C@H](O)C(F)(F)F)c2=O)n1` (mixture of isomers) [Example 436, 3-[3-({3-(4-Chlorophenyl)-5-oxo-4-[(2S)-3,3,3-trifluoro-2-hydroxypropyl]-4,5-dihydro-1H-1,2,4-triazol-1-yl}methyl)-1H-1,2,4-triazol-1-yl]-N-[2,2-difluorocyclopropyl]pyridine-2-carboxamide], on human V1a receptor, the half-inhibitory concentration (IC50) is 25 nM and the “ratio IC50 hV2/hV1a” value worked out at 33.0. Besides, the IC50 on human V2 receptor came to 825 nM.

On to `CC1CN(C(=O)c2ncccc2-n2cnc(Cn3nc(-c4ccc(Cl)cc4)n(C[C@H](O)C(F)(F)F)c3=O)n2)CCO1` (mixture of isomers) [Example 440, 5-(4-Chlorophenyl)-2-{[1-(2-{[2-methylmorpholin-4-yl]carbonyl}pyridin-3-yl)-1H-1,2,4-triazol-3-yl]methyl}-4-[(2S)-3,3,3-trifluoro-2-hydroxypropyl]-2,4-dihydro-3H-1,2,4-triazol-3-one], for which, on human V1a receptor, the half-maximal inhibitory concentration (IC50) is 100 nM and the “ratio IC50 hV2/hV1a” value is listed as 45.5. Further, the IC50 on human V2 receptor was 4550 nM.

Regarding `NC(=O)C1CCCN1C(=O)c1ncccc1-n1cnc(Cn2nc(-c3ccc(Cl)cc3)n(C[C@H](O)C(F)(F)F)c2=O)n1` (mixture of isomers) [Example 441, 1-({3-[3-({3-(4-Chlorophenyl)-5-oxo-4-[(2S)-3,3,3-trifluoro-2-hydroxypropyl]-4,5-dihydro-1H-1,2,4-triazol-1-yl}methyl)-1H-1,2,4-triazol-1-yl]pyridin-2-yl}carbonyl)-prolinamide], on human V1a receptor, the IC50 worked out at 175 nM and the “ratio IC50 hV2/hV1a” value amounted to 34.6. In addition, at human V2 receptor, the IC50 came out at 6050 nM.

As to `O=C(c1ncccc1-n1cnc(Cn2nc(-c3ccc(Cl)cc3)n(C[C@H](O)C(F)(F)F)c2=O)n1)N1CCC(O)(C(F)(F)F)C1` (mixture of isomers) [Example 442, 5-(4-Chlorophenyl)-2-{[1-(2-{[3-hydroxy-3-(trifluoromethyl)pyrrolidin-1-yl]carbonyl}pyridin-3-yl)-1H-1,2,4-triazol-3-yl]methyl}-4-[(2S)-3,3,3-trifluoro-2-hydroxypropyl]-2,4-dihydro-3H-1,2,4-triazol-3-one], the IC50 on human V1a receptor was 190 nM; at human V2 receptor, 4650 nM. Moreover, the “ratio IC50 hV2/hV1a” value on human V1a receptor is listed as 24.5.

The values above are taken from patent US11173151B2, “Substituted triazole derivatives and uses thereof” (BAYER AKTIENGESELLSCHAFT, priority 2017, dated 2021).
